From ChEMBL document CHEMBL1201862, “PubChem BioAssay data set” (2004) come the findings set out here.

Some test systems named below: NCI-H23; ACHN; HOP-92; SNB-19; SW-620; A498; SK-MEL-2; OVCAR-3; K562; OVCAR-5; KM12; HCT-15; SN12C; Malme-3M; CAKI-1; M14; MDA-MB-231; UACC-62; HCC 2998; MOLT-4.
Holding throughout (test): NCI-60 cell line screen, 48 h

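Five compound concentrations were applied to cells in 96-well plates for 48 hours; endpoints were derived by simple linear interpolation of the resulting dose-response curve. Abbreviation: GI50, concentration required for 50% inhibition of growth.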 Activity calls are given as the source filed them. Rule as the data show it: active = GI50 up to about 1.1 µM and inactive = higher. A value given as a limit tells only on which side of the number the result lay.

Regarding `O=C(O)CCC1(C(=O)O)CCC(=O)c2ccccc21` (centres undefined), the GI50 with NCI-H23, with ACHN, with HOP-92, in the experiment with SNB-19, with SW-620 and in the experiment on A498 was > 100 µM (inactive) throughout. In addition, the GI50 with SK-MEL-2 is > 100 µM (inactive); in the experiment on OVCAR-3, > 100 µM (inactive); with K562 it was > 100 µM (inactive); in the experiment on OVCAR-5 it was > 100 µM (inactive); in the experiment with KM12, > 100 µM (inactive); in the experiment with HCT-15, greater than 100 µM. The GI50 with SN12C, in the experiment with Malme-3M, in the experiment on CAKI-1, with M14, in the experiment on MDA-MB-231 and in the experiment on UACC-62 was > 100 µM (inactive) throughout. The GI50 with HCC 2998 was > 100 µM (inactive).
For the compound `C=C(Br)COc1ccc2c(C)cc(=O)oc2c1`, the GI50 is 90.4 µM (inactive) in the experiment with NCI-H23; 60.5 µM (inactive) in the experiment on ACHN; 12.5 µM (inactive) with HOP-92; > 100 µM (inactive) with SNB-19; > 100 µM (inactive) with SW-620; 64.7 µM (inactive) in the experiment on A498. Also, the GI50 was > 100 µM (inactive) in the experiment on SK-MEL-2; 86.3 µM (inactive) with OVCAR-3; 49 µM (inactive) in the experiment on K562; > 100 µM (inactive) in the experiment with OVCAR-5; 0.319 µM (active) in the experiment on KM12; 57.7 µM with HCT-15. Further, the GI50 is 34.4 µM (inactive) in the experiment with MOLT-4; > 100 µM (inactive) with SN12C; > 100 µM (inactive) in the experiment on Malme-3M; 99.1 µM (inactive) with CAKI-1; > 100 µM (inactive) in the experiment with M14; 0.951 µM (active) in the experiment on MDA-MB-231. Moreover, in the experiment on HCC 2998, the GI50 is 95.3 µM (inactive).
As to `CCCCCNC1=CC(=O)c2ccccc2C1=O`, the GI50 is 24.3 µM (inactive) in the experiment with NCI-H23; 58.9 µM (inactive) in the experiment with ACHN; 17.4 µM (inactive) in the experiment on HOP-92; 24.3 µM (inactive) in the experiment on SNB-19; > 100 µM (inactive) in the experiment on SW-620; 32.1 µM (inactive) with A498. In addition, the GI50 in the experiment on SK-MEL-2 is 21.6 µM (inactive); with OVCAR-3 it was 22.5 µM (inactive); in the experiment with K562, > 100 µM (inactive); with OVCAR-5, > 100 µM (inactive); in the experiment with KM12 it was > 100 µM (inactive); with HCT-15, 52.2 µM. For the same compound, the GI50 was > 100 µM (inactive) in the experiment with MOLT-4; 49.9 µM (inactive) in the experiment on SN12C; 34.5 µM (inactive) with Malme-3M; 33.7 µM (inactive) in the experiment with CAKI-1; > 62.4 µM (inactive) in the experiment on M14; 19.4 µM (inactive) in the experiment with MDA-MB-231. The GI50 in the experiment with UACC-62 is 33.7 µM (inactive); in the experiment on HCC 2998, > 78.2 µM (inactive).
In the case of `N#CC(Cc1ccccc1Br)N(CCC1=CCCCC1)C(c1ccccc1)c1ccccc1` (centres undefined), the GI50 in the experiment with NCI-H23 is 27.8 µM (inactive); in the experiment with ACHN, > 100 µM (inactive); in the experiment with HOP-92, 29.7 µM (inactive); in the experiment on SNB-19, > 100 µM (inactive); in the experiment on SW-620, 73.8 µM (inactive); with A498 it was > 100 µM (inactive). The GI50 with SK-MEL-2 is > 100 µM (inactive); with OVCAR-3 it was 75.5 µM (inactive); in the experiment on K562 it was 44.3 µM (inactive); in the experiment with OVCAR-5, > 100 µM (inactive); in the experiment on KM12, 64.9 µM (inactive); with HCT-15, 50.2 µM. In addition, the GI50 was 72.3 µM (inactive) in the experiment with MOLT-4; > 100 µM (inactive) in the experiment on Malme-3M; > 100 µM (inactive) with CAKI-1; 37.9 µM (inactive) in the experiment on M14; > 100 µM (inactive) with MDA-MB-231; 97.1 µM (inactive) in the experiment with UACC-62. Further, the GI50 with HCC 2998 was 18.6 µM (inactive).
`O=C(/N=S(/NC(=O)c1ccccc1)C(Cl)(Cl)Cl)c1ccccc1` (centres undefined): the GI50 in the experiment with NCI-H23 is 12.4 µM (inactive); with ACHN, 18.4 µM (inactive); in the experiment on HOP-92, 32.3 µM (inactive); in the experiment with SNB-19, 51.2 µM (inactive); with SW-620, 3.57 µM (inactive); with A498 it was 27 µM (inactive). Moreover, the GI50 in the experiment on SK-MEL-2 is 31.9 µM (inactive); with OVCAR-3 it was 31.2 µM (inactive); in the experiment with K562 it was 8.91 µM (inactive); in the experiment with OVCAR-5 it was 22.9 µM (inactive); in the experiment with KM12, > 65 µM (inactive); in the experiment with HCT-15, 8.59 µM. Besides, the GI50 was 6.97 µM (inactive) in the experiment with MOLT-4; 24.7 µM (inactive) in the experiment with SN12C; 17.5 µM (inactive) in the experiment on Malme-3M; 20.9 µM (inactive) in the experiment with CAKI-1; 10.5 µM (inactive) in the experiment with M14; 33.7 µM (inactive) in the experiment on MDA-MB-231. In addition, the GI50 in the experiment on UACC-62 was 22.6 µM (inactive); in the experiment on HCC 2998 it was 34.8 µM (inactive).
With `Cc1ccc(C(O)c2cnc(C)n2Cc2ccccc2)cc1` (centres undefined), the GI50 in the experiment on NCI-H23, with ACHN, in the experiment on HOP-92, in the experiment with SNB-19, in the experiment on SW-620 and in the experiment with A498 was > 100 µM (inactive) each time. Besides, the GI50 in the experiment with SK-MEL-2 was > 100 µM (inactive); in the experiment on OVCAR-3, > 100 µM (inactive); in the experiment on K562 it was > 100 µM (inactive); in the experiment with OVCAR-5 it was > 100 µM (inactive); in the experiment with KM12, > 100 µM (inactive); in the experiment with HCT-15, greater than 100 µM. Also, the GI50 with SN12C, with Malme-3M, with CAKI-1, in the experiment on M14, in the experiment on MDA-MB-231 and in the experiment on UACC-62 was > 100 µM (inactive) in each case. In addition, the GI50 with HCC 2998 was > 100 µM (inactive).
On to `COc1ccc(N2CCN(Cc3c(C(C)=O)[n+]([O-])c4ccccc4[n+]3[O-])CC2)cc1`, for which the GI50 in the experiment with NCI-H23 is 10.6 µM (inactive); with ACHN, 22 µM (inactive); with HOP-92, 32.5 µM (inactive); with SNB-19, 35.3 µM (inactive); in the experiment on SW-620, 42.2 µM (inactive); in the experiment on A498 it was 44.7 µM (inactive). For the same compound, the GI50 was 54.2 µM (inactive) in the experiment on SK-MEL-2; > 100 µM (inactive) in the experiment on OVCAR-3; > 100 µM (inactive) in the experiment with K562; 68.2 µM (inactive) with OVCAR-5; 48.1 µM (inactive) in the experiment with KM12; 47.1 µM with HCT-15. For the same compound, the GI50 is 41.2 µM (inactive) in the experiment with SN12C; 12 µM (inactive) in the experiment with Malme-3M; > 100 µM (inactive) in the experiment on CAKI-1; 45.5 µM (inactive) with M14; 31.2 µM (inactive) in the experiment on MDA-MB-231; 71.6 µM (inactive) in the experiment on UACC-62. For the same compound, the GI50 in the experiment on HCC 2998 was > 100 µM (inactive).
For `CCN(CC)CCC1CCCCN1CC(=O)N1c2cc(Cl)ccc2NC(=O)CC1C` (centres undefined), the GI50 in the experiment on NCI-H23, in the experiment on ACHN, in the experiment on HOP-92, in the experiment on SNB-19, in the experiment with A498 and with SK-MEL-2 was > 100 µM (inactive) in each case. The GI50 in the experiment on OVCAR-3 was > 100 µM (inactive); in the experiment with K562 it was > 100 µM (inactive); in the experiment on OVCAR-5 it was > 100 µM (inactive); in the experiment with KM12, > 100 µM (inactive); with HCT-15, greater than 100 µM; with MOLT-4 it was > 100 µM (inactive). In addition, the GI50 in the experiment on SN12C, with Malme-3M, in the experiment with CAKI-1, in the experiment with M14, in the experiment on MDA-MB-231 and in the experiment with UACC-62 was > 100 µM (inactive) in each case. In the experiment on HCC 2998, the GI50 was > 100 µM (inactive).
